Results published in patent publication US7977364B2, “Indazoles, benzisoxazoles and benzisothiazoles and their use as estrogenic agents” (Laboratoire Thermamex, priority 2004, dated 2011).

How the values were obtained:
[1] = system: human breast cancer cell line MCF-7; experiment: Proliferative activity in vitro (ATP luminescence, 6 days); assay type: cell-based; details: Homo sapiens, MCF7, 144 h; for activity at 1 µM: MCF-7, 10^−6 M, read-out: Effect at 10^−6 M (% of control); for activity at 1 µM / activity at 0.01 µM: six days; for activity at 0.01 µM: MCF-7, 10^−8 M, read-out: Effect at 10^−8 M (% of control); for EC50: MCF-7, six days, read-out: Cell proliferation EC50 (nM) ± S.E.M
Procedure: The proliferative effect of the compounds of the invention was evaluated on human breast cancer cell line MCF-7 by measuring the number of viable cells after 6 days of treatment.
MCF-7 cells were routinely cultured as monolayers in Dulbecco's modified Eagle's medium (DMEM) containing 4 mM Glutamax and 4.5 g/l glucose and supplemented with 5% (v/v) decomplemented fetal calf serum (dFCS) and antibiotics.
Cells were plated at 2.10^6 cells/75 cm^2 flasks and incubated at 37° C. in a humidified atmosphere containing 5% CO2. They were passaged once weekly to maintain continuous exponential growth. Forty eight hours before the start of an experiment, near-confluent cells were changed to a phenol red free DMEM containing 5% steroid-stripped dFCS by dextran coated charcoal treatment (DCC-DMEM). On the day of the experiment, cells were harvested by brief exposure to trypsin and plated in DCC-DMEM in 96-well microplates at a density of 4.10^3 cells/well. The next day, the medium was renewed and test compounds, diluted appropriately in estrogen-free DMEM, were added and incubated for six days. […] At the end of the incubation period, cell proliferation was evaluated by quantitation of the cellular ATP content which signals the presence of metabolically active cells.
The assay, based on the ATP-dependent luciferase reaction, enables generation of a luminescent signal proportional to the amount of ATP present. As there is a linear relationship between the amount of ATP and the number of viable cells present in culture, the luminescent signal allowed to precisely evaluate cell proliferation (Crouch, S. P. M. et al. J. Immunol. Meth., 1993, 160, 81; Kangas, L. et al. Med. Biol. 1984, 62, 338; Petty, R. D. et al. J. Biolum. Chemilum. 1995, 10, 29).
In brief, the microplates were inverted to discard the culture medium and 100 μl of fresh medium was added into each well. The microplates were equilibrated at room temperature for approximately 30 minutes. 100 μl of luciferase reagent was added into each well and contents were mixed for 2 minutes to induce cell lysis. The plates were incubated at room temperature for 10 minutes to stabilize luminescence signal.
Luminescence was recorded using a microplate reader (Wallac, model 1420 Victor^2) and results were expressed as percentage of the control luminescence. Sigmoidal dose-response curves were plotted and EC50 values were calculated for each compound in order to evaluate their proliferative potency.

[2] = biological target: T1, purified full-length recombinant human ERα (Homo sapiens, UniProt P03372); experiment: Estrogen receptor α competitive radiometric binding assay ([3H]-E2); details: for RBA (%) Mean ± S.E.M, ER α: ratio of IC50s of E2 and competitor, E2 set at 100%
T1 sequence (P03372 1-595): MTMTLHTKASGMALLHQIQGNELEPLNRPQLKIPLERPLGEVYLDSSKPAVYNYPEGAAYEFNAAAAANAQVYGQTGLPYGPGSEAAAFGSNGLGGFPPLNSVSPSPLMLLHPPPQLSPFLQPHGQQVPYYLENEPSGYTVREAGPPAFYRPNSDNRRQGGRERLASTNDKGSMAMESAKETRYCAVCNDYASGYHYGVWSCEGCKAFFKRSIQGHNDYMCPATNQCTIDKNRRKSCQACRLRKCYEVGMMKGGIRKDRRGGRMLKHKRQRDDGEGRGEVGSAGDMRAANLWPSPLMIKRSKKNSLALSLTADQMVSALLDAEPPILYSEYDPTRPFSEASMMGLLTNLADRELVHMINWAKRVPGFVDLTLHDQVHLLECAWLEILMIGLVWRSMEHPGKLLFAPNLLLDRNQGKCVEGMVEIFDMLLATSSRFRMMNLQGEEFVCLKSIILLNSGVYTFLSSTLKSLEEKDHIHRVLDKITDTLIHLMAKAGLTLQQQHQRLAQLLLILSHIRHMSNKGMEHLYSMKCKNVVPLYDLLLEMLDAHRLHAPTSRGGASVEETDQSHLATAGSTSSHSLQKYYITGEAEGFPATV
Procedure: (§1) Relative binding affinities (RBA) were determined by competitive radiometric binding assays, using purified full-length recombinant human ERα and ERβ (PanVera, Madison, Wis.). […] After shaking for a few seconds and centrifugation at 1500 g and 4° C. for 10 minutes, 150 μl/well of Optiphase ‘Super Mix’ scintillation liquid was mixed with 50 μl of supernatant of each sample and the radioactivity was measured in a MicroBeta counter (Wallac, Turku, Finland). Data were evaluated by a sigmoidal dose-response curve (Prism, GraphPad Software Inc.) to estimate the concentration of competitor at half-maximal specific binding (IC50). […] The selectivity for ERα and ERβ was obtained from the ratio R of the IC50 for ERα to the IC50 for ERβ for each test compound.

Prepubescent female rats = experiment: Estrogenic / uterotrophic activity in vivo (uterus wet weight); set-up: species or system rat; details: Rattus norvegicus, po, 72 h, Table 4; orally 3 mg/rat/day for 3 days; read-out: % stimulation vs vehicle (uterus weight)
Procedure: Prepubescent female rats were orally treated at 3 mg/rat/day for 3 days. On the day following the last treatment, uteri were removed and wet weights were recorded.
The results are expressed as % of stimulation of uterus weight in comparison with vehicles. […]
Prepubescent female rats were orally treated with 0.3; 1; 3 or 10 mg/rat/day for 3 days. On the day following the last treatment, uteri were removed and wet weights were recorded.

[3] = biological target: purified full-length recombinant human ERβ (Homo sapiens, UniProt Q92731); experiment: Estrogen receptor β competitive radiometric binding assay ([3H]-E2); details: for selectivity for the human recombinant estrogen receptor β: in words; for RBA (%) Mean ± S.E.M, ER β: ratio of IC50s of E2 and competitor, E2 set at 100%; for R (IC50s) αβ: ratio of the IC50 for ERα to the IC50 for ERβ
Sequence of purified full-length recombinant human ERβ (Q92731 whole entry): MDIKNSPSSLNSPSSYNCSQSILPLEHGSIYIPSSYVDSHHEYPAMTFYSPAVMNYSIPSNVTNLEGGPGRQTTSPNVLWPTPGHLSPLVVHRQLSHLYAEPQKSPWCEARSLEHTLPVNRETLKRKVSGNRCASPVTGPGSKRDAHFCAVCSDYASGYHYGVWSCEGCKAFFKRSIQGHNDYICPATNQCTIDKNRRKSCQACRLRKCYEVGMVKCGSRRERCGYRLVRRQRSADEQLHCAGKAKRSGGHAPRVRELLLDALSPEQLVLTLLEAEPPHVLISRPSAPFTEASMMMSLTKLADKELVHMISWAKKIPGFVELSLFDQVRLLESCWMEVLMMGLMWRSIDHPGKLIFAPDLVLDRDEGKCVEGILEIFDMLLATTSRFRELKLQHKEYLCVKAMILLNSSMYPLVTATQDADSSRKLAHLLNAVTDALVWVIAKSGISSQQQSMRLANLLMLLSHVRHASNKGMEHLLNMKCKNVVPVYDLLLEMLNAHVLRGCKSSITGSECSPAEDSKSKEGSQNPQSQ
Procedure: as §1

[4] = system: human endometrial adenocarcinoma Ishikawa cells; experiment: Estrogenic and anti-estrogenic activities in vitro: induction of alkaline phosphatase (APase) activity; assay type: cell-based; details: for EC50: Homo sapiens, Ishikawa, 96 h, compound alone, four days, ND = not detected, read-out: Estrogenic activity EC50 (nM) ± S.E.M; for estrogenic effect in alkaline phosphatase activity in the Ishikawa cell model: in words
Procedure: The estrogenic and anti-estrogenic potentials of new compounds were evaluated using the induction of alkaline phosphatase (APase) activity, an estrogen specific response in human endometrial adenocarcinoma Ishikawa cells (Botella J., J Steroid Biochem Molec Biol, 1995, 55: 77-84; Littlefield et al., Endocrinology, 1990, 127: 2757-2762).
Ishikawa cells were routinely grown as monolayers in Dulbecco's Modified Eagle's medium (DMEM) containing 4 mM Glutamax I and supplemented with 10% of decomplemented fetal calf serum (dFCS) and antibiotics. They were maintained in a humidified atmosphere of 5% CO2 and 95% air, at 37±0.1° C. Stocks were performed once a week to maintain continuous exponential growth.
For studies, Ishikawa cells were plated into 96-well microplates. The next day, the medium was changed to a phenol red-free DMEM containing 5% dFCS stripped of endogenous estrogens by dextran coated charcoal treatment.
At the end of the incubation period, APase activity was assayed by a method involving the hydrolysis of p-nitrophenyl phosphate to p-nitrophenol at pH 9.8 and spectrophotometric determination of the product at 405 nm.
In brief, the microplates were first rinsed twice with cold phosphate buffered solution and then placed at −80° C. for at least 15 minutes. After thawing at room temperature for 5-10 minutes, the plates were put on ice and 50 μl ice-cold solution containing 5 mM p-nitrophenyl phosphate was added to each well. The plates were warmed to room temperature to allow for the development of the enzymatic reaction (t0). After a 15 to 60 minute incubation period, the intensity of the yellow color generated by the production of p-nitrophenol was measured into each well at 405 nm using a microplate reader (Wallac, model 1420 Victor^2). […] Sigmoidal dose-response curves were plotted and EC50 (estrogenic effect) and IC50 (anti-estrogenic effect) values were calculated for each compound.

Compound	activity at 1 µM [1]	activity at 0.01 µM [1]	EC50 [1]	IC50 [2]	RBA (%) Mean ± S.E.M, ER α [2]	change in vivo at 3 mg (Prepubescent female rats)	IC50 [3]	selectivity for the human recombinant estrogen receptor β [3]	RBA (%) Mean ± S.E.M, ER β [3]	R (IC50s) αβ [3]	EC50 [4]	estrogenic effect in alkaline phosphatase activity in the Ishikawa cell model [4]	melting point
Oc1ccc2c(C3CCCCC3)noc2c1 [Ex 66, 3-cyclohexyl-1,2-benzisoxazol-6-ol]	149%	100%	25.4 ± 4 nM	260 ± 40.1 nM	1.1 ± 0.2%	31%	44.6 ± 7.7 nM	marked selectivity	9.4 ± 3.1%	5.8	221 ± 14 nM	weak estrogenic effect	181 °C
NS(=O)(=O)n1nc(C2CCCCC2)c2ccc(O)cc21 [Ex 40, 3-cyclohexyl-6-hydroxy-1H-indazole-1-sulfonamide]	152%	107%	11.5 ± 2.8 nM	1480 ± 1180 nM	0.1 ± 0.02%	41%	188 ± 34 nM		1.0 ± 0.2%	7.9	132 ± 4.7 nM		162 °C
Oc1ccc2c(C3CCCCC3)n[nH]c2c1 [Ex 24, 3-cyclohexyl-1H-indazol-6-ol]	143%	89.9%	18.5 ± 1.8 nM	159 ± 23.7 nM	1.2 ± 0.2%	101%	10.2 ± 0.9 nM		24.6 ± 4.3%	15.6	136.3 ± 1.2 nM		147 °C
N#CC(Cc1ccc(F)cc1)c1noc2cc(O)ccc12 (stereo not drawn) [Ex 84, 2-(6-hydroxy-1,2-benzisoxazol-3-yl)-3-(4-fluorophenyl) propanenitrile]	286%	97%	77.9 ± 4.1 nM	2300 ± 446 nM	0.1 ± 0.03%	24%	123 ± 25.9 nM	marked selectivity	2.5 ± 0.4%	18.7	322 ± 20 nM	weak estrogenic effect	152 °C
